Measurements taken from ChEMBL document CHEMBL1138433, “New indole alkaloids from the North Sea bacterium Vibrio parahaemolyticus Bio249” (J Nat Prod, 2003).
The source made the active and inactive calls.

Assays:
Assay type in all cases: functional, organism-based
[1] = test system: Streptomyces viridochromogenes; experiment: Antibacterial activity against Streptomyces viridochromogenes by agar diffusion method
[2] = test system: Candida albicans; experiment: Antifungal activity against Candida albicans by agar diffusion method
[3] = test system: Escherichia coli; experiment: Antibacterial activity against Escherichia coli by agar diffusion method
[4] = test system: Bacillus subtilis; experiment: Antibacterial activity against Bacillus subtilis by agar diffusion method
[5] = test system: Rhizomucor miehei; experiment: Antifungal activity against Mucor miehei by agar diffusion method
[6] = test system: Staphylococcus aureus; experiment: Antibacterial activity against Staphylococcus aureus by agar diffusion method

Measured: Activity

CC(CC(c1c[nH]c2ccccc12)c1c[nH]c2ccccc12)c1c[nH]c2ccccc12 (centres undefined)
inactive: all assays above

CC(=O)C(C)(c1c[nH]c2ccccc12)c1c[nH]c2ccccc12
inactive: all assays above

c1ccc2c(Cc3c[nH]c4ccccc34)c[nH]c2c1
inactive: all assays above

c1ccc2c(C(c3c[nH]c4ccccc34)c3c[nH]c4ccccc34)c[nH]c2c1
inactive: all assays above
